Reference: patent US11186589B2, “Cyanoindoline derivatives as NIK inhibitors” (Janssen Pharmaceutica NV, priority 2016, dated 2021)
Like-named read-outs stand apart in the source and are kept apart here.

How the values were obtained:
NIK/MAP3K14 = NIK/MAP3K14 (Homo sapiens (Human), UniProt Q99558); experiment: Inhibition of auto-phosphorylation of recombinant human NF-kappaB-inducing kinase (NIK/MAP3K14) activity (AlphaScreen); format: biochemical; details: averaged values over all measurements on all batches, 25 microM ATP
Description: Inhibition of Auto-Phosphorylation of Recombinant Human NF-kappaB-Inducing Kinase ([…]) Activity (AlphaScreen®)
NIK/MAP3K14 auto-phosphorylation activity was measured using the AlphaScreen® (αscreen) format (Perkin Elmer). All compounds tested were dissolved in dimethyl sulfoxide (DMSO) and further dilutions were made in assay buffer. Final DMSO concentration was […] in assays. Assay buffer was 50 mM Tris pH 7.5 containing 1 mM EGTA (ethylene glycol tetraacetic acid), 1 mM DTT (dithiothreitol), 0.1 mM Na3VO4, 5 mM MgCl2, 0.01% Tween® 20. Assays were carried out in 384 well Alphaplates (Perkin Elmer). Incubations consisted of compound, 25 microM Adenosine-5′-triphosphate (ATP), and 0.2 nM NIK/MAP3K14. Incubations were initiated by addition of GST-tagged NIK/MAP3K14 enzyme, carried out for 1 h at 25° C. and terminated by addition of stop buffer containing anti-phospho-[…] Ser176/180 antibody. Protein A Acceptor and Glutathione-Donor beads were added before reading using an EnVision® Multilabel Plate Reader (Perkin Elmer). Signal obtained in the wells containing blank samples was subtracted from all other wells and IC50's were determined by fitting a sigmoidal curve to % inhibition of control versus Log10 compound concentration.

[1] = system: P-IKKα levels in L363 cells; experiment: Effect of compounds on P-IKKα levels in L363 (NIK translocated multiple myeloma) cells; format: cell-based, human; details: 2 hr treatment, averaged values, read-out: Inhibition of pIKKα_L-363 (IC50 (nM))
Description: Effect of Compounds on P-IKKα Levels in L363 (NIK Translocated Multiple Myeloma) Cells
All compounds tested were dissolved in DMSO and further dilutions were made in culture medium. Final DMSO concentration was 1% (v/v) in cell assays. The human L363 cells (ATCC) were cultured in RPMI 1640 medium supplemented with GlutaMax and 10% fetal calf serum (PAA). Cells were routinely maintained at densities of 0.2×10^6 cells per ml—1×10^6 cells per ml at 37° C. in a humidified 5% CO2 atmosphere. Cells were passaged twice a week splitting back to obtain the low density. Cells were seeded in 96 well plates (Nunc 167008) at 2×10^6 per ml media in a volume of 75 μl per well plus 25 μl 1 μg/ml recombinant human B-cell activating factor (BAFF/BLyS/TNFSF13B). Seeded cells were incubated at 37° C. in a humidified 5% CO2 atmosphere for 24 hr. Drugs and/or solvents were added (20 μl) to a final volume of 120 μl. Following 2 hr treatment plates were removed from the incubator and cell lysis was achieved by the addition of 30 μl 5× lysis buffer followed by shaking on a plate shaker at 4° C. for 10 min. At the end of this incubation lysed cells were centrifuged at 800×g for 20 min at 4° C. and the lysate was assessed for P-IKKα levels by sandwich immuno-assay carried out in anti-rabbit antibody coated Mesoscale plates. Within an experiment, the results for each treatment were the mean of 2 replicate wells. For initial screening purposes, compounds were tested using an 8 point dilution curve (serial 1:3 dilutions). For each experiment, controls (containing MG132 and BAFF but no test drug) and a blank incubation (containing MG132 and BAFF and 10 μM ADS125117, a test concentration known to give full inhibition) were run in parallel. The blank incubation value was subtracted from all control and sample values. To determine the IC50 a sigmoidal curve was fitted to the plot of % inhibition of control P-IKKα levels versus Log10 compound concentration.

JJN-3 cells = experiment: Antiproliferative activity on JJN-3 (NIK translocated) multiple myeloma cells (CellTiter-Glo); format: cell-based, human; details: Homo sapiens, JJN-3, 96 h, JJN-3 (NIK translocated) cells, 96 hr treatment, averaged values, read-out: JJN-3 Proliferation inhibition (IC50 (nM))
Description: (§1) Determination of Antiproliferative Activity on JJN-3 (NIK Translocated) and KMS12-BM (NIK WT) Multiple Myeloma Cells
(§2) All compounds tested were dissolved in DMSO and further dilutions were made in culture medium. Final DMSO concentration was 0.3% (v/v) in cell proliferation assays. Viability was assessed using CellTiter-Glo cell viability assay kit (Promega). The human JJN-3 and KMS12-BM cells (DSMZ) were cultured in RPMI 1640 medium supplemented with 2 mM L-glutamine, and 10% fetal calf serum (PAA). Cells were routinely kept as suspension cells at 37° C. in a humidified 5% CO2 atmosphere. Cells were passaged at a seeding density of 0.2×10^6/ml twice a week. Cells were seeded in black tissue culture treated 96-well plates (Perkin Elmer). Densities used for plating ranged from 15000 (JJN3) to 20000 (KMS12BM) cells per well in a total volume of […]. Drugs and/or solvents were added (15 μl) to a final volume of 150 μl. Following 96 hr of treatment, plates were removed from the incubator and allowed to equilibrate to room temperature for approx 10 min. 75 μl CellTiter-Glo reagent was added to each well that was then covered (Perkin Elmer Topseal) and shaken on plate shaker for 10 min. Luminescence was measured on a HTS Topcount (Perkin Elmer). Within an experiment, the results for each treatment were the mean of 2 replicate wells. For initial screening purposes, compounds were tested using a 9 point dilution curve (serial 1:3 dilutions). For each experiment, controls (containing no drug) and a blank incubation (containing cells read at the time of compound addition) were run in parallel. The blank value was subtracted from all control and sample values. For each sample, the mean value for cell growth (in relative light units) was expressed as a percentage of the mean value for cell growth of the control.

KMS12-BM cells = experiment: Antiproliferative activity on KMS12-BM (NIK WT) multiple myeloma cells (CellTiter-Glo); format: cell-based, human; details: Homo sapiens, KMS-12-BM, 96 h, 96 hr treatment, averaged values, read-out: KMS-12 Proliferation inhibition (IC50 (nM))
Description: as §1, §2

Sequence of NIK/MAP3K14 (Q99558 whole entry): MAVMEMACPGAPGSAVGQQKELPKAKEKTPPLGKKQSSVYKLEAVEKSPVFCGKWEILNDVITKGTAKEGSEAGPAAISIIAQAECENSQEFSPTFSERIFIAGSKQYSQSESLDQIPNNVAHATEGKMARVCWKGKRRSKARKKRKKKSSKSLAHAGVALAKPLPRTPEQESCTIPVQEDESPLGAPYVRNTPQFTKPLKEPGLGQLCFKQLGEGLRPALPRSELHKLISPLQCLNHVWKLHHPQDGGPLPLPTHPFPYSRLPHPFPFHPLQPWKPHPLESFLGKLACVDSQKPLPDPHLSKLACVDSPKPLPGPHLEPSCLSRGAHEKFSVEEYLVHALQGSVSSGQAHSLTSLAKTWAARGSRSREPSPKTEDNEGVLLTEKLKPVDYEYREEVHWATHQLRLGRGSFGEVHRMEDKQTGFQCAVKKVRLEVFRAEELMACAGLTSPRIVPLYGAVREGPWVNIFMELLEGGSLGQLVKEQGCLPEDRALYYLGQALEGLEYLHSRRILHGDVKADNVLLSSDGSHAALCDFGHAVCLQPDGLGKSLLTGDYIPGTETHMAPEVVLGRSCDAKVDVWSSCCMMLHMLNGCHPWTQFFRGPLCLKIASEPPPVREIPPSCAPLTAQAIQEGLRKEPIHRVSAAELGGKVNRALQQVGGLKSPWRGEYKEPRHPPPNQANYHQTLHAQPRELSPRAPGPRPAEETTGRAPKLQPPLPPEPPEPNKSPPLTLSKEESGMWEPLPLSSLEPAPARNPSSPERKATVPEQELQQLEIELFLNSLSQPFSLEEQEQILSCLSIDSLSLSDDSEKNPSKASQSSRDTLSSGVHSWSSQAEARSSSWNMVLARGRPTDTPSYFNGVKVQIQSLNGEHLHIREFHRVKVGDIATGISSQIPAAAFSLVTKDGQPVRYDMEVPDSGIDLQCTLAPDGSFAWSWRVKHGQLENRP

Compound | IC50 (NIK/MAP3K14) | IC50 ([1]; Homo sapiens, L-363, 2 h) | IC50 (JJN-3 cells) | IC50 (KMS12-BM cells) | IC50 [1]
COc1nc2c(cc1Nc1nccc(-c3cc(C#N)c4c(c3)[C@@](C)(CO)CN4)n1)CN(C1CC1)CC2 [Compound 52] | 7.8 nM | 20 nM | 200 nM | > 10000 nM | 
COc1cc2c(cc1Nc1nccc(-c3cc(C#N)c4c(c3)C(C)(CO)CN4)n1)CCN2C(C)=O (centres unmarked) [Compound 39] | 2.5 nM | 3 nM |  |  | 
COc1cc2c(cc1Nc1nccc(-c3cc(C#N)c4c(c3)C(C)(CO)CN4)n1)NC(=O)CC2 (centres unmarked) [Compound 59] | 12.9 nM | 37 nM |  |  | 
CN(C)C(=O)c1cc2cc(Nc3nccc(-c4cc(C#N)c5c(c4)C(C)(C)CN5)n3)ccc2[nH]1 [Compound 12c] | 10.5 nM | 14 nM |  |  | 
CC1CC(C)n2ncc(Nc3nccc(-c4cc(C#N)c5c(c4)C(C)(CO)CN5)n3)c2O1 (racemic) [Compound 20b] | 6.2 nM |  |  |  | 2 nM
CC1(C)CNc2c(C#N)cc(-c3ccnc(Nc4cc(Cl)cc5[nH]ccc45)n3)cc21 [Compound 7c] |  | 72 nM | 537 nM | > 10000 nM | 
CN(C)C(=O)C1Cc2cc(Nc3nccc(-c4cc(C#N)c5c(c4)C(C)(C)CN5)n3)ccc2N1 (centres unmarked) [Compound 43] | 6.6 nM | 5 nM |  |  | 
CC1OCCn2nc(Nc3nccc(-c4cc(C#N)c5c(c4)C(C)(C)CN5)n3)cc21 (centres unmarked) [Compound 32b] | 5.9 nM | 8 nM |  |  | 
C[C@]1(CO)CNc2c(C#N)cc(-c3ccnc(Nc4cc5c(nc4C#CC4CC4)CCOC5)n3)cc21 [Compound 22] | 2240 nM | > 10000 nM |  |  | 
CN1CCc2nc(OCC3CC3)c(Nc3nccc(-c4cc(C#N)c5c(c4)[C@@](C)(CO)CN5)n3)cc2C1 [Compound 35] | 4.3 nM | 69 nM |  |  | 
COc1cc2c(cc1Nc1nccc(-c3cc(C#N)c4c(c3)C(C)(CO)CN4)n1)CCN2C(=O)CN(C)C (centres unmarked) [Compound 40] | 4.3 nM | 3 nM |  |  | 
CN(C)CC(=O)N1CCc2c1ccc(Nc1nccc(-c3cc(C#N)c4c(c3)C(C)(CO)CN4)n1)c2F (centres unmarked) [Compound 38] | 3.4 nM | 12 nM |  |  | 
CC1(CO)CNc2c(C#N)cc(-c3ccnc(Nc4ccc5c(c4F)CCN5)n3)cc21 (centres unmarked) [Compound 37] | 4.3 nM | 9 nM |  |  | 
Cc1c(Nc2nccc(-c3cc(C#N)c4c(c3)C(C)(CO)CN4)n2)ccc2c1CC(=O)N2 (centres unmarked) [Compound 42] | 8.9 nM |  |  |  | 36 nM
C[C@]1(CO)CNc2c(C#N)cc(-c3ccnc(Nc4cc5c(nc4OC4CCCC4)CCOC5)n3)cc21 [Compound 47] | 35.5 nM | 51 nM |  |  | 
CC(=O)N1CCc2c1ccc(Nc1nccc(-c3cc(C#N)c4c(c3)C(C)(CO)CN4)n1)c2F (centres unmarked) [Compound 36] | 3.7 nM | 16 nM |  |  | 
